Results from ChEMBL document CHEMBL5233204, “Expanding the repertoire of methanocarba nucleosides from purinergic signaling to diverse targets” (RSC Med Chem, 2021).
pEC50, pIC50, pKi: −log10 of the molar value. Each block holds one compound with its values, some of them ahead of it.

What was measured:
P2Y purinoceptor 1 [1] = target: T1, P2Y purinoceptor 1 (Homo sapiens, UniProt P47900); assay: Agonist activity at human P2Y1R in human 1321N1 cells; format: cell-based
P2Y purinoceptor 1 [2] = target: T1, P2Y purinoceptor 1; assay: Agonist activity at human P2Y1R in human 1321N1 cells assessed as efficacy relative to control; format: cell-based; conditions: filed as agonist
[3] = Inhibition of S-adenosyl homocysteine hydrolase (unknown origin) relative to control; conditions: Homo sapiens; concentration not given here
[4] = target: 5-hydroxytryptamine receptor 2A (Homo sapiens, UniProt P28223); assay: Binding affinity to 5HT2A receptor (unknown origin) assessed as inhibition constant
[5] = target: 5-hydroxytryptamine receptor 2B (Homo sapiens, UniProt P41595); assay: Binding affinity to 5HT2B receptor (unknown origin) assessed as inhibition constant
[6] = target: T2, 5-hydroxytryptamine receptor 2C (Homo sapiens, UniProt P28335); assay: Binding affinity to 5HT2C receptor (unknown origin) assessed as inhibition constant
T2 sequence (P28335 whole entry): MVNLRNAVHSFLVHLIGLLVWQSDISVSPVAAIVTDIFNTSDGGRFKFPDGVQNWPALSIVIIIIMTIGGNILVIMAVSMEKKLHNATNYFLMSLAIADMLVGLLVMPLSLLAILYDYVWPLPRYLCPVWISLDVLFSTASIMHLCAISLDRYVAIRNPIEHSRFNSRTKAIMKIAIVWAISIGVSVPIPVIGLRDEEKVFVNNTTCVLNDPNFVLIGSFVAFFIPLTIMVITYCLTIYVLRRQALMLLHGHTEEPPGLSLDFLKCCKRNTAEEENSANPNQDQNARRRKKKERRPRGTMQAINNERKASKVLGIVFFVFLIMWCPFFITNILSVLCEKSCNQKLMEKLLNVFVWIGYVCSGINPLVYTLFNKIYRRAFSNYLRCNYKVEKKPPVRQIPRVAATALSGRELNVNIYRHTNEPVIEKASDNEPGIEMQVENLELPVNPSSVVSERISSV

[7] = target: T3, Equilibrative nucleoside transporter 1 (Homo sapiens, UniProt Q99808); assay: Inhibition of human recombinant ENT1 assessed as inhibition of [3H] uridine transport
T3 sequence (Q99808 whole entry): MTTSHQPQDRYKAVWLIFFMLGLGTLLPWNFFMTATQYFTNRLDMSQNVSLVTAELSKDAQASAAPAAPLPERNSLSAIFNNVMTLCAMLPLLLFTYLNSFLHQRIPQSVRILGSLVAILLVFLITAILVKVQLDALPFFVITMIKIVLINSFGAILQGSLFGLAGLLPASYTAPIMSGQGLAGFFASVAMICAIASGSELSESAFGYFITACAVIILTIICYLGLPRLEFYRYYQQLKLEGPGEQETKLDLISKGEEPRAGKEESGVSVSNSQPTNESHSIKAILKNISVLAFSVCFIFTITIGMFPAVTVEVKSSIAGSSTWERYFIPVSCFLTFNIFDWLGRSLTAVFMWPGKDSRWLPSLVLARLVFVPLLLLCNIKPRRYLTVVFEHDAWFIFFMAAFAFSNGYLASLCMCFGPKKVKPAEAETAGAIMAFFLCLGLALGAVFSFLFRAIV

[8] = target: T4, Sodium/nucleoside cotransporter 2 (Homo sapiens, UniProt O43868); assay: Inhibition of human CNT2
T4 sequence (O43868 whole entry): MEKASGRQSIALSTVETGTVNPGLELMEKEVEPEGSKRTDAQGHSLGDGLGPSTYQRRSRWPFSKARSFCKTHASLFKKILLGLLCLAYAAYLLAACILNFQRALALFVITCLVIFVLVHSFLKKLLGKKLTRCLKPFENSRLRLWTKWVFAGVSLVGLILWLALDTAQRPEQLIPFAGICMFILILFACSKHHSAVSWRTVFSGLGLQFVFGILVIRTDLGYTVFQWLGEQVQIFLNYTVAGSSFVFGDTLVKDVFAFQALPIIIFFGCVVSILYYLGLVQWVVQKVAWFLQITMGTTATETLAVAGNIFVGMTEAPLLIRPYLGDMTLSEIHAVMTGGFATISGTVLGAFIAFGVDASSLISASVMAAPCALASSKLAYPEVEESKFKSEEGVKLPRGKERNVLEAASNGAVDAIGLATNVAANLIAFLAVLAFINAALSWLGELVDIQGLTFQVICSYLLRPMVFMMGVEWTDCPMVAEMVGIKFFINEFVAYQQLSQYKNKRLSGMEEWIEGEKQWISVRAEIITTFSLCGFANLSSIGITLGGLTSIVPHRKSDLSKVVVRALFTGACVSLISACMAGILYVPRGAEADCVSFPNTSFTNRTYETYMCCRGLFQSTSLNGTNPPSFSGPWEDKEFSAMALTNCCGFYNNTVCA

[9] = target: T5, Sodium/nucleoside cotransporter 1 (Homo sapiens, UniProt O00337); assay: Inhibition of human CNT1
T5 sequence (O00337 whole entry): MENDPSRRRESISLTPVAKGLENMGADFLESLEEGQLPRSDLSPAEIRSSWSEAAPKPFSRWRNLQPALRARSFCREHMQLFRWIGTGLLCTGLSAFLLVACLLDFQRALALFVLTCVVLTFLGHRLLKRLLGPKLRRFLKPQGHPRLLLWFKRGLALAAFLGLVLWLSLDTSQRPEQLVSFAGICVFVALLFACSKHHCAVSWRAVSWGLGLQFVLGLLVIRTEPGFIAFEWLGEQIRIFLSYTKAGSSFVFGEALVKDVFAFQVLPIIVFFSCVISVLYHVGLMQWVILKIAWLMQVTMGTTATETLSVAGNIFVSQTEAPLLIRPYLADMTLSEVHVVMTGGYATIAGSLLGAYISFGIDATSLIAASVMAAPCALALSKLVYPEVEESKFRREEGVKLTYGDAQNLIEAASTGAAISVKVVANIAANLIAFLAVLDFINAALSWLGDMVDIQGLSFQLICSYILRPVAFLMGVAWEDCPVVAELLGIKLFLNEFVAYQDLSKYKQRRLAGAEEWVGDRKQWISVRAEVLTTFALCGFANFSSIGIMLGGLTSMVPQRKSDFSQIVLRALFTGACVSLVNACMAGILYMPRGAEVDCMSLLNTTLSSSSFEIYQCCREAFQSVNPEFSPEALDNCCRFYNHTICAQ

Adenosine receptor A3 = target: T6, Adenosine receptor A3 (Mus musculus, UniProt Q61618); assay: Binding affinity to mouse adenosine A3 receptor assessed as inhibition constant
T6 sequence (Q61618 whole entry): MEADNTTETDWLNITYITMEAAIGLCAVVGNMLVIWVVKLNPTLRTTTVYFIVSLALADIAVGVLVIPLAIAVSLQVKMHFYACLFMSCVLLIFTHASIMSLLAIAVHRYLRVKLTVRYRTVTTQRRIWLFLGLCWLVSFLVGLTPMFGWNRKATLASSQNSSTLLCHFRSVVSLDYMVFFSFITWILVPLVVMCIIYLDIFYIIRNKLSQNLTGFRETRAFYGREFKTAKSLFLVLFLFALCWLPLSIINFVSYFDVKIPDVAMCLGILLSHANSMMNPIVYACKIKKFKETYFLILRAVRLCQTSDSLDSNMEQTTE

[10] = Binding affinity to bovine adenosine A2A receptor assessed as inhibition constant; parameters: species or system Bos taurus
[11] = target: T3, Equilibrative nucleoside transporter 1; assay: Inhibition of ENT1 (unknown origin)
Adenosine receptor A2b = Adenosine receptor A2b (Homo sapiens, UniProt P29275); assay: Binding affinity to human adenosine A2B receptor assessed as inhibition constant
Adenosine receptor A1 = Adenosine receptor A1 (Rattus norvegicus, UniProt P25099); assay: Binding affinity to rat adenosine A1 receptor assessed as inhibition constant
Adenosine receptor A2a = Adenosine receptor A2a (Homo sapiens, UniProt P29274); assay: Binding affinity to human adenosine A2A receptor assessed as inhibition constant
Sequence of Adenosine receptor A2a (P29274 whole entry): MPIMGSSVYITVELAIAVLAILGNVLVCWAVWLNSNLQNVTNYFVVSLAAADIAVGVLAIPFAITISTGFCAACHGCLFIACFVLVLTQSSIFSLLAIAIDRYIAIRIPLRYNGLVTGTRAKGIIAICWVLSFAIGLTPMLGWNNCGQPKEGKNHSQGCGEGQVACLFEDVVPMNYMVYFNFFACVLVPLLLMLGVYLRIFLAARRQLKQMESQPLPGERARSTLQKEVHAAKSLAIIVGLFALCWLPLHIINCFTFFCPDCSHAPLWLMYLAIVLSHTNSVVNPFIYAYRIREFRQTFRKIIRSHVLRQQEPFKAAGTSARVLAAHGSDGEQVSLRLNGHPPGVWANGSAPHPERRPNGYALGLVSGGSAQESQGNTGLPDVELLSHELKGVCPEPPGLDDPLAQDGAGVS

T1 sequence (P47900 whole entry): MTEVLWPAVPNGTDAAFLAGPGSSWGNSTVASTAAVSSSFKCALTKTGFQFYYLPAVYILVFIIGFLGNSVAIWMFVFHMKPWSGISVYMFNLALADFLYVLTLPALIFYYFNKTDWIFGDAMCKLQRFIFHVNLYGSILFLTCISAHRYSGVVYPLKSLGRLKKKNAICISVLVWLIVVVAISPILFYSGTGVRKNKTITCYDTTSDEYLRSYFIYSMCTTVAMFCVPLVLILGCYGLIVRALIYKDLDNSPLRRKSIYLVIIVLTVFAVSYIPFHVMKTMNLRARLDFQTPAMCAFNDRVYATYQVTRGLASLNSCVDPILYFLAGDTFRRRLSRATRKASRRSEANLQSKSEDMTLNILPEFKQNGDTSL
Sequence of 5-hydroxytryptamine receptor 2A (P28223 whole entry): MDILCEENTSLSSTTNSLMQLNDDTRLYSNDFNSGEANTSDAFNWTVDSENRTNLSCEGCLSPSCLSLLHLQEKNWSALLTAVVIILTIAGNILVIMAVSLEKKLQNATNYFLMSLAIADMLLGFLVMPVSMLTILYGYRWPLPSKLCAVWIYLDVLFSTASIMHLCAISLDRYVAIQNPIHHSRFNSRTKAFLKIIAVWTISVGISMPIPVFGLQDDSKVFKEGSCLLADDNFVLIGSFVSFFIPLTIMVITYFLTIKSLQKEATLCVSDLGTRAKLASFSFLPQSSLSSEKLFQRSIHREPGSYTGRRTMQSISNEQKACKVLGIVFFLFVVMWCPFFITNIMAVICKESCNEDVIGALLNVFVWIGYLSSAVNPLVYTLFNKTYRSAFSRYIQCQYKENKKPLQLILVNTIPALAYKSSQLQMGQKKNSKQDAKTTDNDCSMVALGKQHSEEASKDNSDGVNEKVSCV
Sequence of Adenosine receptor A2b (P29275 whole entry): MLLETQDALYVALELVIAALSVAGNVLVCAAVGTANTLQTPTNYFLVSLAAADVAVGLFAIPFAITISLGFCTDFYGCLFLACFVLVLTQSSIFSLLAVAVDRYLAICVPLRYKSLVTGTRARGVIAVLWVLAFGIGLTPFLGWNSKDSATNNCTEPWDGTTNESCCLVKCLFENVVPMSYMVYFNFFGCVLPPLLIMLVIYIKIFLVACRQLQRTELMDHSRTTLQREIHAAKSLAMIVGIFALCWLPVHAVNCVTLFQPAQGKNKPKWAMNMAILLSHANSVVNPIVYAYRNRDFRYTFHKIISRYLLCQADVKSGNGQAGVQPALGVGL
Sequence of Adenosine receptor A1 (P25099 whole entry): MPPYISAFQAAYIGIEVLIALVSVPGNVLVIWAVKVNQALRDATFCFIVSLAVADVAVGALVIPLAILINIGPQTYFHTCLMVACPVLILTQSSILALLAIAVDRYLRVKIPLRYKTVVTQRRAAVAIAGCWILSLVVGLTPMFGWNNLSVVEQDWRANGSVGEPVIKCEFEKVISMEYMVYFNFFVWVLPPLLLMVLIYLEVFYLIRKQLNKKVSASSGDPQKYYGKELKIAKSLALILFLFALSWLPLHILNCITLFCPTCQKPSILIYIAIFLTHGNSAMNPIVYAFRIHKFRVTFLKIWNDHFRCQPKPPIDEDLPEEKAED
Sequence of 5-hydroxytryptamine receptor 2B (P41595 whole entry): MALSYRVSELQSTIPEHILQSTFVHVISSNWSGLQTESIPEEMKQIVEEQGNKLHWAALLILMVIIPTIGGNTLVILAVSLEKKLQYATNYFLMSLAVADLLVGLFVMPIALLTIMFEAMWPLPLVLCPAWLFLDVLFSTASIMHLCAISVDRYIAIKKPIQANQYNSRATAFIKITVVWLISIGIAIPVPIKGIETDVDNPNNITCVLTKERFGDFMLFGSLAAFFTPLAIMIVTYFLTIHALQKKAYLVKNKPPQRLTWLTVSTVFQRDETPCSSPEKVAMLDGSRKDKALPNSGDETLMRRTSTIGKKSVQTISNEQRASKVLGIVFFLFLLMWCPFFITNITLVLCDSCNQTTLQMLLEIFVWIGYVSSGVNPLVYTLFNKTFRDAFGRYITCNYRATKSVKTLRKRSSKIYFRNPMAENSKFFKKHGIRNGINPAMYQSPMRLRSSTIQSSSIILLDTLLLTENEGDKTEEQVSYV

pEC50 (P2Y purinoceptor 1 [1]): 5.89
Efficacy (P2Y purinoceptor 1 [2]): 77%
SMILES: Nc1ncnc2c1ncn2[C@H]1C[C@H](OP(=O)(O)O)[C@@H](COP(=O)(O)O)O1

inhibition [3]: 30%
SMILES: Nc1ncnc2c1ncn2[C@H]1[C@H](O)[C@H](O)[C@]2(CO)O[C@H]12

pEC50 (P2Y purinoceptor 1 [1]): 6.81
Efficacy (P2Y purinoceptor 1 [2]): 92%
SMILES: Nc1ncnc2c1ncn2[C@H]1C[C@H](OP(=O)(O)O)[C@@]2(COP(=O)(O)O)C[C@H]12

inhibition [3]: 30%
SMILES: Nc1ncnc2c1ncn2[C@@H]1C[C@H](CO)[C@@H](O)[C@H]1O

SMILES: CCOC(=O)[C@]12C[C@@H]1[C@@H](n1cnc3c(NC(C4CC4)C4CC4)nc(Cl)nc31)[C@H](O)[C@@H]2O
pKi [4]: < 5.00
pKi [5]: 7.82
pKi [6]: 7.52

Efficacy (P2Y purinoceptor 1 [2]): 100%
SMILES: CSc1nc(N)c2ncn([C@@H]3O[C@H](COP(=O)(O)OP(=O)(O)O)[C@@H](O)[C@H]3O)c2n1

SMILES: OC[C@]12C[C@@H]1[C@@H](n1cnc3c(NC(C4CC4)C4CC4)nc(Cl)nc31)[C@H](O)[C@@H]2O
pKi [4]: < 5.00
pKi [6]: 7.08

pIC50 [7]: 3.20
pIC50 [8]: 3.84
pIC50 [9]: 4.24
SMILES: Nc1ncnc2c1ncn2[C@]12C[C@H](O)[C@@H](CO)[C@@H]1C2

pKi (Adenosine receptor A3): < 5.00
SMILES: CNC(=O)[C@]12C[C@@H]1[C@@H](n1cnc3c(NC)nc(C#Cc4ccc(Cl)s4)cc31)[C@H](O)[C@@H]2O

pKi [10]: 5.41
SMILES: C[C@@]1(O)[C@H](O)[C@@H](CO)O[C@H]1n1cnc2c(NC3CCCC3)nc(Cl)nc21

pIC50 [11]: 7.52
SMILES: O=[N+]([O-])c1ccc(CSc2ncnc3c2ncn3[C@H]2[C@H](O)[C@H](O)[C@@]3(CO)C[C@H]23)cc1

inhibition [3]: 30%
SMILES: Nc1ncnc2c1ncn2[C@H]1[C@H](O)[C@H](O)[C@]2(CO)C[C@H]12

pEC50 (P2Y purinoceptor 1 [1]): 4.72
Efficacy (P2Y purinoceptor 1 [2]): 50%
SMILES: Nc1ncnc2c1ncn2[C@]12C[C@H](OP(=O)(O)O)[C@@H](COP(=O)(O)O)[C@@H]1C2

pKi (Adenosine receptor A2b): < 4.30
pKi (Adenosine receptor A1): < 4.00
pKi (Adenosine receptor A2a): < 4.00
SMILES: Nc1ncnc2c1ncn2[C@@]12C[C@H]1[C@H](CO)[C@@H](O)[C@H]2O (racemic)
